The values that follow come from patent publication US20160355530A1, “HEPATITIS C INHIBITORS AND USES THEREOF” (AbbVie Inc., priority 2010, published 2016).

Each structure is given as a SMILES string. Read-outs that look alike come from different tables or passages of the source.

For experiment [1], the system named is HCV 1b-BB7 subgenomic replicon. Description: microbe, parasite or virus in culture. In kind it is cell-based, HCV genotype 1b. The conditions noted are these: Hepatitis C virus, stable replicon.
Experiment [2] relates to chimeric replicon with 2a-J6CF-derived NS5B. Nature of the experiment: microbe, parasite or virus in culture. In kind it is cell-based, HCV genotype 2a. The conditions noted are these: Hepatitis C virus, read-out: 2a chimera 5% FBS EC50.
Experiment [3] has as its target T1, HCV NS5B polymerase 1b BK strain (Hepatitis C virus genotype 1b, UniProt P26663).
T1 construct: six-histidine tag; made in house; host or cells: E. coli
Nature of the experiment: HCV NS5B polymerase enzymatic inhibition assay, strain 1b BK. The following applies: enzyme, strain 1b BK; read-out: HCV Polymerase Strain 1b BK IC50. In kind it is biochemical. A digest of the protocol:
(§1)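 E. coli-expressed NS5B (residues 1-570, His-tagged) transcribed a 2.1 kb HCV 1b negative-strand 3′-end RNA template (5 nM) with 20 μM CTP, 20 μM ATP and 0.284 μM [3H]UTP for 3 h at 30° C. Spermine-precipitated RNA was filter-captured and counted by scintillation; IC50 from nonlinear regression.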

The subject of experiment [4] is chimeric replicon with genotype 3a NS5B. Nature of the experiment: microbe, parasite or virus in culture. In kind it is cell-based, HCV genotype 3a. The following applies: Hepatitis C virus, read-out: 3a chimera 5% FBS EC50.
The target in experiment [5] is T2, HCV NS5B polymerase 1a-H77 (Hepatitis C virus genotype 1a, UniProt P27958).
T2 construct: six-histidine tag; made in house; host or cells: E. coli
T2 sequence (P27958 2421-2990): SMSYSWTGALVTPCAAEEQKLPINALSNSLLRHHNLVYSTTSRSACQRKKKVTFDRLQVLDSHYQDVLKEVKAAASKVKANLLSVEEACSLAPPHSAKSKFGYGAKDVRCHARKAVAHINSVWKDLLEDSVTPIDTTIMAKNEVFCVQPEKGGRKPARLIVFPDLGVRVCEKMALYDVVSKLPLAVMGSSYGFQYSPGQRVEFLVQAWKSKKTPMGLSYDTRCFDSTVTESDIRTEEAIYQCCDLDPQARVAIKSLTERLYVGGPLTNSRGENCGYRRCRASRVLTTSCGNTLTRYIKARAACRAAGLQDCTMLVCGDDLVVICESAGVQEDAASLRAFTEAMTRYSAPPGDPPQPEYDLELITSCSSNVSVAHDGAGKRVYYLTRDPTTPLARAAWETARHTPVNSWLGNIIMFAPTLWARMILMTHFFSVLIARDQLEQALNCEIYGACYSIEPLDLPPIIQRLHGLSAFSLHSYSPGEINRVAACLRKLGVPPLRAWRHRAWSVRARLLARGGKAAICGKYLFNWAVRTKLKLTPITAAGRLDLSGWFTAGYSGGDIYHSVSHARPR
Description: biochemical. Also noted: species or system HCV genotype 1a. The conditions noted are these: enzyme, strain 1a H77; read-out: HCV Polymerase Strain 1a H77 IC50. The method, boiled down:
as §1

The target in experiment [6] is T3, HCV NS5B polymerase 1a-H77-C316Y (Hepatitis C virus genotype 1a, UniProt P27958, C2736Y).
T3 construct: six-histidine tag; made in house; host or cells: E. coli
T3 sequence (P27958 2421-2990 C2736Y): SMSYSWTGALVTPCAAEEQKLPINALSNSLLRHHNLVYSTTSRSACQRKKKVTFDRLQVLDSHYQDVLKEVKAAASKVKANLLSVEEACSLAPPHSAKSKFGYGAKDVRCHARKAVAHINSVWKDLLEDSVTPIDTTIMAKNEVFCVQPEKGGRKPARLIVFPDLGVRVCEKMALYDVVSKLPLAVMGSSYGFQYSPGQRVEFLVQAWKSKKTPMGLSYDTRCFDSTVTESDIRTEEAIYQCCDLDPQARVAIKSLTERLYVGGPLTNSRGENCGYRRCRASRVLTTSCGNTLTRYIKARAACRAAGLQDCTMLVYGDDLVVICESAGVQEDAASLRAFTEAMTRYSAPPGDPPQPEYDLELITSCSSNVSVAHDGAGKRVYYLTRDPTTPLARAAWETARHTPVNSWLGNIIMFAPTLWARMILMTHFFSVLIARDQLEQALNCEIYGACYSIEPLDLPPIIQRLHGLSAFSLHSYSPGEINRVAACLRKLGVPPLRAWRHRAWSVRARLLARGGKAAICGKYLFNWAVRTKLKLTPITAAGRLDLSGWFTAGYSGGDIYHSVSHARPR
Description: biochemical. More on the design: species or system HCV genotype 1a. The method, boiled down: as §1

Experiment [7] relates to HCV NS5B polymerase 1a-H77-C316Y. Nature of the experiment: biochemical. More on the design: species or system HCV genotype 1a. The conditions noted are these: ratio of enzyme IC50s, 1a H77-C316Y / 1a H77. The method, boiled down: as §1
Experiment [8] concerns chimeric replicon with genotype 4a NS5B. Description: microbe, parasite or virus in culture. In kind it is cell-based, HCV genotype 4a. The conditions noted are these: Hepatitis C virus, read-out: 4a chimera 5% FBS EC50.
In experiment [9] the test system is chimeric replicon with genotype 2b NS5B. Description: microbe, parasite or virus in culture. In kind it is cell-based, HCV genotype 2b. The conditions noted are these: Hepatitis C virus, read-out: 2b chimera 5% FBS EC50.
Experiment [10] has as its system HCV 1a-H77 subgenomic replicon. Description: microbe, parasite or virus in culture. In kind it is cell-based, HCV genotype 1a. The conditions noted are these: Hepatitis C virus, stable replicon.
[11] abbreviates: strain 1b BB7, 5% FBS + 40% human plasma, read-out: 1b BB7 5% FBS + 40% Human Plasma EC50.
Where [12] appears, read: strain 1b BB7, 5% FBS, no human plasma, read-out: 1b BB7 5% FBS EC50.
Setting [13] is: strain 1b BB7, 5% FBS, read-out: 1b BB7 5% FBS EC50.
The mark [14] stands for this setting: 5% FBS, absence of human plasma, read-out: Stable Replicon 1a H77 5% FBS EC50.
The mark [15] stands for this setting: strain 1a H77, 5% FBS + 40% human plasma, read-out: 1a H77 5% FBS + 40% Human Plasma EC50.
[16] abbreviates: strain 1a H77, 5% FBS, no human plasma, read-out: 1a H77 5% FBS EC50.
Where [17] appears, read: strain 1a H77, 5% FBS, read-out: 1a H77 5% FBS EC50.

T1 sequence (P26663 2420-2989): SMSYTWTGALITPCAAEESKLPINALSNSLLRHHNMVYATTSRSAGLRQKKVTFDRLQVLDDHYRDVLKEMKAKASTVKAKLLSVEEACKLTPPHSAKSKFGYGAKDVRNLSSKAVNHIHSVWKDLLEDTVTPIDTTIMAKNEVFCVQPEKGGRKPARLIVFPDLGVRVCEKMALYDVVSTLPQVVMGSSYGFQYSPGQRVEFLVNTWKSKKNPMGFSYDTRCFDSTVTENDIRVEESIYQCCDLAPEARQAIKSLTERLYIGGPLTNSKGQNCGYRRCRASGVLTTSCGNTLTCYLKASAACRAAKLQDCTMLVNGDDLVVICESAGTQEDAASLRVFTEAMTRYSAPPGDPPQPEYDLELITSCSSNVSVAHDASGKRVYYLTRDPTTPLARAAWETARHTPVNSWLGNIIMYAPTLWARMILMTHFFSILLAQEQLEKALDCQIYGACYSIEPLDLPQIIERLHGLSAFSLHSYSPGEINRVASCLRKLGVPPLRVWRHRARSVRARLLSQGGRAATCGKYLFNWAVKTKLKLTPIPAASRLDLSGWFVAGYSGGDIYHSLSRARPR

With `CCN(c1cc2oc(-c3ccc(F)cc3)c(-c3ncc[nH]3)c2cc1C1CC1)S(C)(=O)=O` [Example 56, N-[5-cyclopropyl-2-(4-fluorophenyl)-3-(1H-imidazol-2-yl)-1-benzofuran-6-yl]-N-ethylmethanesulfonamide], the EC50 (commonly the concentration at which the effect is half-maximal) came to 62 nM in [1] (setting [11]); 12.1 nM in experiment [1] (setting [12]); 12.1 nM in experiment [1] (setting [13]); 49.3 nM in [2]; 9.6 nM in experiment [4]; 81.9 nM in experiment [8]. For the same molecule, the EC50 in experiment [9] stood at 42.6 nM; in experiment [10] (setting [14]) it was 27.8 nM; in [10] (setting [15]), 192 nM; in experiment [10] (setting [16]), 27.8 nM; in experiment [10] (setting [17]), 27.8 nM. The values for the IC50 in [3], in experiment [5] and in [6] were 17 nM, 3.5 nM and 220 nM, respectively. In addition, in [7], the “C316Y/1a Fold Resistance” value is 64 fold.
`C=CCN(c1cc2oc(-c3ccc(F)cc3)c(-c3ncc[nH]3)c2cc1C1CC1)S(C)(=O)=O` [Example 57, N-allyl-N-[5-cyclopropyl-2-(4-fluorophenyl)-3-(1H-imidazol-2-yl)-1-benzofuran-6-yl]methanesulfonamide]: the EC50 in experiment [1] (setting [11]) is 69 nM; in experiment [1] (setting [12]) it was 17.7 nM; in experiment [1] (setting [13]), 17.7 nM; in experiment [2] it was 51.5 nM; in experiment [4], 9.1 nM; in experiment [8], 138 nM. In addition, the EC50 in experiment [9] came out at 72.4 nM; in experiment [10] (setting [14]), 35.2 nM; in experiment [10] (setting [15]), 306 nM; in [10] (setting [16]) it was 35.2 nM; in experiment [10] (setting [17]), 35.2 nM. Further, the IC50 (as a rule, the point on the concentration scale where inhibition reaches its midpoint) in experiment [3] worked out at 11 nM; in experiment [5], 3 nM; in experiment [6], 232 nM. The “C316Y/1a Fold Resistance” value in [7] was found to be 77 fold.
Regarding `CS(=O)(=O)N(CCN1CCOCC1)c1cc2oc(-c3ccc(F)cc3)c(-c3ncc[nH]3)c2cc1C1CC1` [Example 58, N-[5-cyclopropyl-2-(4-fluorophenyl)-3-(1H-imidazol-2-yl)-1-benzofuran-6-yl]-N-[2-(morpholin-4-yl)ethyl]methanesulfonamide], the EC50 stood at 193 nM in [1] (setting [11]); 11.9 nM in [1] (setting [12]); 11.9 nM in [1] (setting [13]); 78.9 nM in experiment [2]; 9.8 nM in [4]; 130 nM in [8]. Also, the EC50 was 130 nM in [9]; 21.8 nM in experiment [10] (setting [14]); 333 nM in [10] (setting [15]); 21.8 nM in experiment [10] (setting [16]); 21.8 nM in [10] (setting [17]). The IC50 in [3] stood at 29 nM; in experiment [5], 7.3 nM; in experiment [6], 133 nM. The “C316Y/1a Fold Resistance” value in [7] is listed as 18 fold.
Take `CN(C)CCCN(c1cc2oc(-c3ccc(F)cc3)c(-c3ncc[nH]3)c2cc1C1CC1)S(C)(=O)=O` [Example 59, N-[5-cyclopropyl-2-(4-fluorophenyl)-3-(1H-imidazol-2-yl)-1-benzofuran-6-yl]-N-[3-(dimethylamino)propyl]methanesulfonamide]: the EC50 in [1] (setting [11]) is 20 nM; in experiment [1] (setting [12]), 11.2 nM; in [1] (setting [13]), 11.2 nM; in experiment [2] it was 65 nM; in [4] it was 10.3 nM; in experiment [8], 424 nM. Also, the concentration for a half-maximal effect (EC50) in experiment [9] came out at 127 nM; in [10] (setting [14]), 85.1 nM; in experiment [10] (setting [15]), 159 nM; in [10] (setting [16]), 85.1 nM; in experiment [10] (setting [17]), 85.1 nM. Also, the IC50 in experiment [3] was 56 nM; in [5], 13.4 nM; in experiment [6] it was 1500 nM. In addition, in experiment [7], the “C316Y/1a Fold Resistance” value is 112 fold.
